We go through four compounds from patent publication US20090105341A1, “PROCESS FOR THE PRODUCTION OF TRANS-10, CIS 12 OCTADECADIENOIC ACID” (Teagasc Dairy Products Research Centre, priority 2005, published 2009).

The test system of series [1] is human colon cancer cells SW480. Description: Anti-proliferative activity of fermented oils, MTS cell viability. Here is the method:
The probiotic strain Lactobacillus paracasei ssp. paracasei NFBC 338 (Lb. paracasei NFBC 338) was previously isolated from the human gastrointestinal tract (GIT), and obtained from University College Cork, Ireland under a restricted materials transfer agreement. Lb. paracasei NFBC 338 was routinely cultured overnight (˜17 h) in MRS broth (Oxoid Ltd., Hampshire, UK) and incubated at 37° C. under anaerobic conditions using anaerobic jars containing Anaerocult A gas packs (Merck, Darmstedt, Germany). L. lactis carrying the plasmids pNZ44 were routinely cultured in the presence of chloramphenicol (5 μg/ml) as a selective marker. Lb. paracasei NFBC harboring the vector pMSP3535 were routinely cultured with erythromycin (10 μg/ml) as selective marker. E. coli TOP 10 (Invitrogen) harbouring the plasmid pNZ44 was cultured in LB (Luria-Bertani)-media supplemented with chloramphenicol (20 μg/ml). Human colon cancer cells were obtained from the American Type Culture Collection (ATCC, Manassas, Va., USA). The t10, c12 CLA isomer (98%+purity) was obtained from Matreya (Matreya Inc., PA, USA;). Cell culture media and supplements were purchased from Sigma Aldrich Ireland Ltd. (Dublin, Ireland), unless otherwise stated. SW480 cells were maintained in Dulbecco's […] (DMEM) supplemented with 5% (v/v) fetal bovine serum, 0.2 mM L-glutamine, 1 mM HEPES and 1 unit/ml penicillin and streptomycin. SW480 cells were grown in 96 well plates and maintained at 37° C. in a humidified atmosphere and a pH of 7.2-7.4 by a required flow of 95% air and 5% CO2.
To examine the anti-proliferative activity of the oils extracted following fermentation of the cultures (L. lactis pNZ44-coPAI and E. coli pNZ44-coPAI) in respective media containing linoleic acid (0.5 mg/ml), human colon cancer cells SW480 were cultured in the presence of different concentrations of the fermented oils. Initially, 1×10^4 cells were seeded in wells and cultured for 24 h at 37° C. to allow the cells to adhere to the surface prior to treatment with 5-20 μg t10, c12 CLA (from fermented oils and t10, c12 CLA standards in ethanol) and 5-25 μg linoleic acid (control unfermented oil and Sigma standard)/ml of media. […] Control flasks were supplemented with ethanol to a final concentration of 0.1% (v/v). Following incubation for 5 days, cell viability was measured and relative cell number were determined using the MTS method (Promega Corporation, Madison, Wis., USA), a colorimetric method for determining the number of viable cells in proliferation or cytotoxicity assays subsequent to incubation with MTS tetrazolium compound. Following incubation with MTS for 2 h, the absorbance was recorded at 492 nm with a 96-well plate reader. Cell viability (%) after treatment is expressed relative to the ethanol control, which represented 100%.
All figures are related to ethanol controls=100% cell viability.

Another series concerns SW480 cells. Particulars: cited from earlier work; for Reduction of cell viability: SW480, Miller et al. (2002); for Effect on SW480 cancer cells: 2003.
Series [2] deals with MCF-7 breast cancer cell line. Particulars: cited from earlier work; for Decrease in cell numbers / cell viability: MCF-7, 20 μg/ml for 8 days, O'Shea et al., 1999.
For series [3] the following is noted: dairy cows, cited from earlier work.

Where two headings read alike, the source gives them in different places.

One may read the viability as the share of living cells, or the viability signal relative to a control.

For `CCCCC/C=C\C=C\CCCCCCCCC(=O)O` [t10, c12 CLA, trans-10, cis-12 octadecadienoic acid], the “Difference in cell viability versus L. lactis t10, c12 CLA” value in series [1] (10-15 μg/ml (p<0.001) and 20 μg/ml (p<0.01)) is given as “significant difference”. In series [1] (at any concentration, Student's t test), the “Difference in cell viability versus E. coli t10, c12 CLA (fermented oil)” value is “no significant difference”. Further, the Reduction of viability with SW480 cells (SW480, 4 days incubation with 16 μg/ml, Miller et al., 2001) is listed as 50-60%; in series [2] (MCF-7, 4 days incubation with 16 μg/ml, Miller et al., 2001), 50-60%. In addition, the “Reduction of cell viability” value in the series with SW480 cells is given as 47-61%. For the same compound, in series [2], the “Decrease in cell numbers / cell viability” value was 15%. For the same compound, in series [3] (4 days abomasal infusion), the “Decrease in milk fat yield” value was 44%. The “Reduction in milk fat percentage” value in series [3] (4 days abomasal infusion) is recorded as 42%.
Take `CCCCC/C=C\C/C=C\CCCCCCCC(=O)O` [linoleic acid, 9 cis, 12 cis-octadecadienoic acid]: in series [1] (Homo sapiens, SW480, 120 h, read-out: Cell viability), the viability at 25 µg/mL is 93.2%. For the same compound, in series [1] (Student's t test), the “Difference in cell viability versus control-linoleic acid (unfermented oil)” value was “No significant difference”. Besides, the “Effect on SW480 cancer cells” value with SW480 cells (16.9 μg/ml media (60.2 μM), Miller et al.) is listed as “slightly proliferative effect”; with SW480 cells (42.8 μg/ml media (152.5 μM), Miller et al.) it was “anti-proliferative effect”. Besides, the Increase of viability in the series with SW480 cells (SW480, same amount (16 μg/ml), 4 days) is reported as 23%.
Consider `CCCCCC/C=C/C=C\CCCCCCCC(=O)O` [c9, t11 CLA, cis-9, trans-11-octadecadienoic acid], for which the “Reduction of cell viability” value with SW480 cells is on record as 40-52%. Moreover, the “Decrease in cell numbers / cell viability” value in series [2] is reported as 60%. In addition, the “Effect on milk fat” value in series [3] (abomasal infusion) was “no effect”.
On to `CCCCC/C=C\C/C=C\CCCCCCCC(=O)O` [control-unfermented LA], for which the “Effect on the cell viability” value in series [1] (SW480, 5-25 μg/ml linoleic acid) is “only a minor effect”.
